Values joined by “and” are separate entries in the source; they are usually repeats but may differ in a detail not shown here. Equal values may be shown once. Toxic doses and inconclusive results are not listed. The calls were made as follows: active = survival T/C of 150% or more; inactive = T/C below 125% in these data. Square brackets hold non-standard residues; d marks the D form. Peptide text beside a SMILES is read from it. * marks the point of attachment. ξ: configuration not given here. Ac5c = NC1(C(=O)O)CCCC1; Cbz = O=C(OCc1ccccc1)*; ξV = CC(C)C(N)C(=O)O
Tested on: P388 leukemia ip, CD2F1 mice, survival T/C
Experiment: NCI In Vivo Anticancer Drug Screen. Data for tumor model P388 Leukemia (intraperitoneal) in CD2F1 (CDF1) mice
Details: endpoint: median survival time, higher = longer survival
In short: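 Mice carrying the transplanted tumor received test compound or vehicle. Survival was recorded in each group, and the value is the treated-group measurement divided by that of the vehicle-treated control group.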

[1] = dose: 100.0 mg/kg/injection, schedule: Q04DX002 (ip), vehicle: saline
[2] = dose: 200.0 mg/kg/injection, schedule: Q04DX002 (ip), vehicle: saline
[3] = dose: 50.0 mg/kg/injection, schedule: Q01DX005 (ip), vehicle: saline with Tween-80
[4] = dose: 100.0 mg/kg/injection, schedule: Q01DX005 (ip), vehicle: saline with Tween-80
[5] = dose: 200.0 mg/kg/injection, schedule: Q01DX005 (ip), vehicle: saline with Tween-80
[6] = dose: 100.0 mg/kg/injection, schedule: Q01DX001 (ip), vehicle: saline with Tween-80
[7] = dose: 200.0 mg/kg/injection, schedule: Q01DX001 (ip), vehicle: saline with Tween-80
[8] = dose: 400.0 mg/kg/injection, schedule: Q01DX001 (ip), vehicle: saline with Tween-80
[9] = dose: 25.0 mg/kg/injection, schedule: Q01DX009 (ip), vehicle: Klucel (hydroxypropylcellulose) (HPC)
[10] = dose: 50.0 mg/kg/injection, schedule: Q01DX009 (ip), vehicle: Klucel (hydroxypropylcellulose) (HPC)
[11] = dose: 200.0 mg/kg/injection, schedule: Q01DX009 (ip), vehicle: Klucel (hydroxypropylcellulose) (HPC)
[12] = dose: 12.5 mg/kg/injection, schedule: Q01DX009 (ip), vehicle: saline
[13] = dose: 25.0 mg/kg/injection, schedule: Q01DX009 (ip), vehicle: saline
[14] = dose: 50.0 mg/kg/injection, schedule: Q01DX009 (ip), vehicle: saline
[15] = dose: 50.0 mg/kg/injection, schedule: Q01DX005 (ip), vehicle: Klucel (hydroxypropylcellulose) (HPC)
[16] = dose: 60.0 mg/kg/injection, schedule: Q01DX005 (ip), vehicle: saline with Tween-80
[17] = dose: 120.0 mg/kg/injection, schedule: Q01DX005 (ip), vehicle: saline with Tween-80
[18] = dose: 240.0 mg/kg/injection, schedule: Q01DX005 (ip), vehicle: saline with Tween-80
[19] = dose: 50.0 mg/kg/injection, schedule: Q01DX009 (ip), vehicle: saline with Tween-80
[20] = dose: 100.0 mg/kg/injection, schedule: Q01DX009 (ip), vehicle: saline with Tween-80
[21] = dose: 200.0 mg/kg/injection, schedule: Q01DX009 (ip), vehicle: saline with Tween-80
[22] = dose: 400.0 mg/kg/injection, schedule: Q01DX009 (ip), vehicle: saline with Tween-80
[23] = dose: 100.0 mg/kg/injection, schedule: Q01DX009 (ip), vehicle: Klucel (hydroxypropylcellulose) (HPC)
[24] = dose: 12.5 mg/kg/injection, schedule: Q01DX009 (ip), vehicle: saline with Tween-80
[25] = dose: 25.0 mg/kg/injection, schedule: Q01DX009 (ip), vehicle: saline with Tween-80
[26] = dose: 100.0 mg/kg/injection, schedule: Q01DX009 (ip), vehicle: saline
[27] = dose: 200.0 mg/kg/injection, schedule: Q01DX009 (ip), vehicle: saline

Measured: T/C

CNCC(=O)Nc1ccc(C2NC(=O)Cc3ccccc32)cc1 (stereo not drawn)
inactive: [1] 104 % of control | [2] 111 % of control

O=C(O)C(O)(C1CCCCC1)C1CCC(C2CCCCC2)CC1C1CCCCC1 (stereo not drawn)
inactive: [3] 98 % of control | [4] 102 % of control | [5] 100 % of control

COC(=O)/C(=C/C=C(c1ccccc1)c1ccccc1)N(C(C)=O)C(C)=O
inactive: [6] 104 % of control | [7] 104 % of control | [8] 96 % of control

O=C1CC2c3ccccc3C1c1ccccc12
inactive: [3] 95 % of control | [4] 94 % of control | [5] 96 % of control

CCCCCCCCSc1nc2ccc(N=Cc3ccccc3O)cc2s1
inactive: dose: 12.5 mg/kg/injection, schedule: Q01DX009 (ip), vehicle: Klucel (hydroxypropylcellulose) (HPC) 109 % of control | [9] 94 % of control | [10] 90 % of control and 92 % of control | [11] 91 % of control

CCC[CH2][Sn]([CH3])([CH3])[CH2]CC[N+](C)(C)C
inactive: [12] 95 % of control | [13] 98 % of control | [14] 96 % of control

CC(C)C(NC(=O)C1(NC(=O)OCc2ccccc2)CCCC1)C(=O)O (stereo not drawn) (Cbz-[Ac5c]-[ξV]-OH)
inactive: [3] 99 % of control | [4] 96 % of control | [5] 99 % of control

ClCCN1c2ccc3ccccc3c2Sc2c1ccc1ccccc21
inactive: [3] 96 % of control | [4] 92 % of control | [5] 97 % of control

CCc1nc(N)nc(N)c1-c1ccc(N2CC[N+](C)(C)CC2)cc1
inactive: dose: 0.24 mg/kg/injection, schedule: Q01DX005 (ip), vehicle: saline with Tween-80 99 % of control | dose: 0.48 mg/kg/injection, schedule: Q01DX005 (ip), vehicle: saline with Tween-80 101 % of control | dose: 0.94 mg/kg/injection, schedule: Q01DX005 (ip), vehicle: saline with Tween-80 105 % of control | dose: 0.96 mg/kg/injection, schedule: Q01DX005 (ip), vehicle: saline with Tween-80 119 % of control

CN1CCCc2cccc(c2)CCC1
inactive: dose: 12.5 mg/kg/injection, schedule: Q01DX005 (ip), vehicle: Klucel (hydroxypropylcellulose) (HPC) 98 % of control | dose: 25.0 mg/kg/injection, schedule: Q01DX005 (ip), vehicle: Klucel (hydroxypropylcellulose) (HPC) 100 % of control | [15] 99 % of control and 95 % of control

C[C@H]1C[C@](C)(CO)Oc2oc3ccccc3c(=O)c21
inactive: [16] 108 % of control | [17] 109 % of control | [18] 111 % of control

OCC1CC2(C1)CC(CO)C2 (stereo not drawn)
inactive: [6] 97 % of control | [7] 104 % of control | [8] 99 % of control

O=C(CBr)N(O)c1ccccc1OCc1ccccc1
inactive: dose: 6.25 mg/kg/injection, schedule: Q01DX001 (ip), vehicle: saline 116 % of control | dose: 12.5 mg/kg/injection, schedule: Q01DX001 (ip), vehicle: saline 98 % of control | dose: 25.0 mg/kg/injection, schedule: Q01DX001 (ip), vehicle: saline 104 % of control

CC(=O)N1CC(=O)NC1=S
inactive: [19] 106 % of control | [20] 97 % of control | [21] 103 % of control and 95 % of control | [22] 104 % of control

CN(C)C(=S)Oc1ccccc1C1SCCS1
inactive: [3] 101 % of control | [4] 99 % of control | [5] 105 % of control

CC1C(=O)CCC2(C)CCC(C)(C)CC12 (stereo not drawn)
inactive: [20] 91 % of control | [21] 104 % of control | [22] 95 % of control

CCOC(=O)/C=C/c1c(Cl)n(C)c(=O)n(C)c1=O
inactive: dose: 7.5 mg/kg/injection, schedule: Q01DX005 (ip), vehicle: Klucel (hydroxypropylcellulose) (HPC) 102 % of control | dose: 15.0 mg/kg/injection, schedule: Q01DX005 (ip), vehicle: Klucel (hydroxypropylcellulose) (HPC) 100 % of control | dose: 30.0 mg/kg/injection, schedule: Q01DX005 (ip), vehicle: Klucel (hydroxypropylcellulose) (HPC) 100 % of control

c1ccc(-c2csc(-c3nc(-c4ccccc4)cs3)n2)cc1
inactive: [9] 117 % of control | [10] 113 % of control | [16] 99 % of control | [23] 118 % of control | [17] 96 % of control | [11] 110 % of control | [18] 96 % of control

CCCCCCCCCCCCCCCC(=O)OCC(CO)OC(=O)CCCCCCCCCCCCCCC (stereo not drawn)
inactive: [10] 91 % of control | [23] 87 % of control | [11] 89 % of control

CN1CC(C(=O)O)=Nc2c1nc(N)[nH]c2=O
inactive: dose: 6.25 mg/kg/injection, schedule: Q01DX009 (ip), vehicle: saline with Tween-80 101 % of control | [24] 109 % of control | [25] 101 % of control

Cc1nnc2sc(C(F)(F)F)nn12
inactive: dose: 50.0 mg/kg/injection, schedule: Q01DX001 (ip), vehicle: Klucel (hydroxypropylcellulose) (HPC) 99 % of control | dose: 100.0 mg/kg/injection, schedule: Q01DX001 (ip), vehicle: Klucel (hydroxypropylcellulose) (HPC) 98 % of control | dose: 200.0 mg/kg/injection, schedule: Q01DX001 (ip), vehicle: Klucel (hydroxypropylcellulose) (HPC) 101 % of control

COc1ccc(/C(C#N)=C\c2ccco2)cc1
inactive: [14] 111 % of control | [26] 110 % of control | [27] 101 % of control

COc1ccc2c(c1OC)C(=O)OC2C(=O)NCCc1ccc2c(c1)OCO2 (stereo not drawn)
inactive: [15] 92 % of control | dose: 100.0 mg/kg/injection, schedule: Q01DX005 (ip), vehicle: Klucel (hydroxypropylcellulose) (HPC) 92 % of control | dose: 200.0 mg/kg/injection, schedule: Q01DX005 (ip), vehicle: Klucel (hydroxypropylcellulose) (HPC) 93 % of control

N[C@@H](C[C@H]1CCC(=O)[C@@H]2O[C@H]12)C(=O)O
inactive: [1] 100 % of control | [2] 98 % of control | dose: 400.0 mg/kg/injection, schedule: Q04DX002 (ip), vehicle: saline 108 % of control | dose: 600.0 mg/kg/injection, schedule: Q04DX002 (ip), vehicle: saline 112 % of control

NCC(O)c1cccc(O)c1 (stereo not drawn)
inactive: dose: 6.25 mg/kg/injection, schedule: Q01DX009 (ip), vehicle: saline 101 % of control and 92 % of control | [12] 101 % of control and 95 % of control | [13] 100 % of control

Nc1nc(N)nc(-c2cccc(Cl)c2)n1
inactive: [16] 100 % of control | [17] 98 % of control | [18] 100 % of control

OC1(C#Cc2ccccc2)c2ccccc2C(O)(C#Cc2ccccc2)c2c(C#Cc3ccccc3)cccc21 (stereo not drawn)
inactive: [24] 87 % of control | [25] 95 % of control | [19] 97 % of control | [21] 86 % of control

CC1=CC(=C2C=C(C)C(=O)C(C)=C2)C=C(C)C1=O
inactive: [26] 97 % of control and 98 % of control | [27] 91 % of control and 95 % of control | dose: 400.0 mg/kg/injection, schedule: Q01DX009 (ip), vehicle: saline 93 % of control and 94 % of control

COc1ccc(CCN2C(=O)C(=O)N(c3cccc(Cl)c3)C2=O)cc1OC
inactive: [23] 86 % of control | [11] 92 % of control

CC(C)NCc1ccccc1Sc1ccccc1CNC(C)C
inactive: dose: 25.0 mg/kg/injection, schedule: Q01DX001 (ip), vehicle: saline with Tween-80 99 % of control | dose: 25.0 mg/kg/injection, schedule: Q04DX002 (ip), vehicle: saline 103 % of control | dose: 50.0 mg/kg/injection, schedule: Q01DX001 (ip), vehicle: saline with Tween-80 98 % of control | dose: 50.0 mg/kg/injection, schedule: Q04DX002 (ip), vehicle: saline 103 % of control | [6] 98 % of control | [1] 103 % of control

CC1(Cl)C(=O)OC2CCC(O)C(O)C21 (stereo not drawn)
inactive: dose: 100.0 mg/kg/injection, schedule: Q04DX003 (ip), vehicle: Klucel (hydroxypropylcellulose) (HPC) 101 % of control | dose: 200.0 mg/kg/injection, schedule: Q04DX003 (ip), vehicle: Klucel (hydroxypropylcellulose) (HPC) 102 % of control | dose: 400.0 mg/kg/injection, schedule: Q04DX003 (ip), vehicle: Klucel (hydroxypropylcellulose) (HPC) 106 % of control

Source: PubChem BioAssay AID330 (DTP/NCI, 2004)
